Measurements as given in US20130336899A1, “ANTIMICROBIAL FORMULATIONS THAT AID IN WOUND HEALING” (Purdue Research Foundation, priority 2010, published 2013).

What was measured:
Format in all cases: cell-based
bacteria [1] = test: Bactericidal log reduction after 10 and 60 min treatment; details: for Log Red - 10 min: 10 min treatment; for Log Red - 60 min: 60 min treatment
Method: Referring now to FIG. 4, the bactericidal effect of osmopermeation is fast acting and occurs in less than 10 minutes, as shown. Finally, osmopermeation is wide spectrum in nature and effective in treating both Gram (+) and Gram (−) bacterial strains.

bacteria [2] = test: Cell viability with vital stain (propidium iodide, PI); details: thymol 2.66 mM, sucrose 1.17 OsM; after 1 hr
Source text: FIG. 3A. Photomicrographs of cells that were: untreated; or treated with sucrose, or thymol or sucrose and thymol (S+T).

bacteria [3] = test: Bactericidal action of hypertonic sucrose with or without membrane permeabilizing agent
bacteria [4] = test: Measurement of 260/280 nm absorbing material (bacteriolysis, loss of intracellular proteins); details: sucrose 1.17 OsM, thymol 2.66 mM
S. aureus = test: Dose response, MIC and combination index, 24 hrs of treatment; details: thymol emulsion
Source text: (§1) Responses represent 24 hrs of treatment. Six specific combinations (S+T) of sucrose and thymol are also plotted for each strain. The effect level (Fa) represents a value between 0 and 1.0 with 0 being no effect and 1.0 being all cells affected. (B) Normalized isobolograms defining the interaction between S and T. Numbered points correspond to the specific combinations enumerated in the table. Table denotes the minimum inhibitory concentrations (MICs) for each treatment as well as outcomes of the six S+T combinations. The nature of the two-treatment interaction is measured via the combination index (CI). The CI<1 is roughly defined as synergistic, ˜1 is additive and CI>1 is antagonistic. See Chou T C. “Theoretical basis, experimental design and computerized simulation of synergism and antagonism in drug combination studies”. Pharmacol. Rev. 2006; […]:621-81. Synergistic interactions were found in combinations with various hyperosmotic pressures and concentrations of the membrane permeabilizing agent.
(§2) Data collected with 4 strains of bacterial E. coli, E, faecalis, S. aureus and MRSA.

E. faecalis = test: as above; details: thymol emulsion
Source text: as §1, §2

E. coli = test: as above; details: thymol emulsion
Source text: as §1, §2

MRSA = test: as above; details: thymol emulsion
Source text: as §1, §2

Row | SMILES | Log Red - 10 min (bacteria [1]) | Log Red - 60 min (bacteria [1]) | effect on cell viability (PI vital stain) (bacteria [2]) | bactericidal effect (bacteria [3]) | 280 nm (A.U.) (bacteria [4]; absorbing material released) | absorbance at 260 nm (bacteria [4]; absorbing material released) | 260/280 nm (bacteria [4]; ratio of absorbances) | MICT (S. aureus) [mM] | MICT (E. faecalis) [mM] | MICT (E. coli) [mM] | MICT (MRSA) [mM]
1 | OC[C@H]1O[C@@](CO)(O[C@H]2O[C@H](CO)[C@@H](O)[C@H](O)[C@H]2O)[C@@H](O)[C@@H]1O [Sucrose (S), sucrose] | <0.5 | <0.2 | little effect on cell viability | no bactericidal effect and actually permits cell proliferation | – | – | – | – | – | – | –
2 | Cc1ccc(C(C)C)c(O)c1 [Thymol (T), 2-isopropyl-5-methylphenol] | ~6.4 | ~6.7 | little effect on cell viability | no significant bactericidal effect | 1.02 | .99 A.U. | 0.97 | 1.65 | 2.60 | 2.60 | 1.65
